experiment: recombinant UMI read abundance after kanamycin selection (control-corrected) (log10(CPM+1)); higher = more efficient recombination; extreme values may be limits of the assay; sequences stand for … in AGTGCAGAGAAAATCGGCCAGTTTTCTCTGCCTGCAGTCCGCATGCCGTGGGACCCCTTGGGTTCTAACCTGTTGCCTAGATTTATGCAGCGGACTGCCTTTCTCCCAAAGTGATAAACCGG…AGGTTGGTTTCACT; site = the 11-nt donor
Summary of the method: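 The measure is log10(CPM+1) for recombinant UMIs. These were PCR-amplified across the donor–target junction and sequenced after Escherichia coli carrying a donor and donor-binding-loop pair library and a target plasmid with T7-inducible IS621 bridge recombinase was plated on IPTG (0.07 mM) plus kanamycin or unselected. CPM were averaged over two replicates and scaled by control-derived factors.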
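Note: IS621 bridge recombinase in Escherichia coli cells against a fixed T5 target plasmid.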

Sequence	recombinant UMI read abundance (log10)
TCACGCGCATGGACCGGTTTTCCCGGTAATCCGTATTTGCT (site TCACGCGCTAG)	1.67
TCACGGACATGGACCGGTTTTCCCGGTAATCCGTATTTGCT (site TCACGGACTAG)	1.43
TCAGAAACATGGACCGGTTTTCCCGGTAATCCGTATTTGCG (site TCAGAAACTCG)	1.86
TCAGAAACATGGACCGGTTTTCCCGGTAATCCGTATTTGCG (site TCAGACACTCG)	0.0112
TCAGAAACATGGACCGGTTTTCCCGGTAATCCGTATTTGCG (site TCAGAGACTCG)	2.47
TCAGAAACATGGACCGGTTTTCCCGGTAATCCGTATTTGCG (site TCAGATACTCG)	0.202
TCAGAAACATGGACCGGTTTTCCCGGTAATCCGTATTTGTA (site TCAGAAACTTA)	2.07
TCAGACACATGGACCGGTTTTCCCGGTAATCCGTATTTGCG (site TCAGAAACTCG)	0
TCAGACACATGGACCGGTTTTCCCGGTAATCCGTATTTGCG (site TCAGACACTCG)	1.77
TCAGACACATGGACCGGTTTTCCCGGTAATCCGTATTTGCG (site TCAGAGACTCG)	0.0043
TCAGACACATGGACCGGTTTTCCCGGTAATCCGTATTTGCG (site TCAGATACTCG)	0.946
TCAGAGACATGGACCGGTTTTCCCGGTAATCCGTATTTGAA (site TCAGAGACTTT)	1.74
TCAGAGACATGGACCGGTTTTCCCGGTAATCCGTATTTGCA (site TCAGAGACTAG)	0.204
TCAGAGACATGGACCGGTTTTCCCGGTAATCCGTATTTGCA (site TCAGAGACTCG)	1.34
TCAGAGACATGGACCGGTTTTCCCGGTAATCCGTATTTGCA (site TCAGAGACTGG)	0.635
TCAGAGACATGGACCGGTTTTCCCGGTAATCCGTATTTGCA (site TCAGAGACTTG)	2.49
TCAGAGACATGGACCGGTTTTCCCGGTAATCCGTATTTGCC (site TCAGAGACTAG)	0.85
TCAGAGACATGGACCGGTTTTCCCGGTAATCCGTATTTGCC (site TCAGAGACTCG)	0.683
TCAGAGACATGGACCGGTTTTCCCGGTAATCCGTATTTGCC (site TCAGAGACTGG)	1.58

Sequence	recombinant UMI read abundance (log10)
TCAGAGACATGGACCGGTTTTCCCGGTAATCCGTATTTGCC (site TCAGAGACTTG)	1.62
TCAGAGACATGGACCGGTTTTCCCGGTAATCCGTATTTGCT (site TCAGAGACTAG)	2.38
TCAGAGACATGGACCGGTTTTCCCGGTAATCCGTATTTGCT (site TCAGAGACTCG)	0.601
TCAGAGACATGGACCGGTTTTCCCGGTAATCCGTATTTGCT (site TCAGAGACTGG)	2.21
TCAGAGACATGGACCGGTTTTCCCGGTAATCCGTATTTGCT (site TCAGAGACTTG)	0.868
TCAGAGACATGGACCGGTTTTCCCGGTAATCCGTATTTGGG (site TCAGAGACTCA)	0.0103
TCAGAGACATGGACCGGTTTTCCCGGTAATCCGTATTTGGG (site TCAGAGACTCC)	0
TCAGAGACATGGACCGGTTTTCCCGGTAATCCGTATTTGGG (site TCAGAGACTCG)	0
TCAGAGACATGGACCGGTTTTCCCGGTAATCCGTATTTGGG (site TCAGAGACTCT)	0.0246
TCAGATTCATGGACCGGTTTTCCCGGTAATCCGTATTTGGA (site TCAGATTCTTC)	1.34
TCAGGGACATGGACCGGTTTTCCCGGTAATCCGTATTTGGG (site TCAGGGACTCC)	0.00795
TCAGGTTCATGGACCGGTTTTCCCGGTAATCCGTATTTGCT (site TCAGGTTCTAG)	1.27
TCAGTAGCATGGACCGGTTTTCCCGGTAATCCGTATTTGCA (site ACAGTATCTTG)	2.25
TCAGTAGCATGGACCGGTTTTCCCGGTAATCCGTATTTGCA (site TCAGTAGCTTG)	1.9
TCAGTCTCATGGACCGGTTTTCCCGGTAATCCGTATTTGAT (site TCAGTCTCTAT)	2.42
TCAGTGCCATGGACCGGTTTTCCCGGTAATCCGTATTTGCG (site TCAGTGCCTCG)	0.0165
TCATACCCATGGACCGGTTTTCCCGGTAATCCGTATTTGCA (site TCATACACTTG)	0
TCATACCCATGGACCGGTTTTCCCGGTAATCCGTATTTGCA (site TCATACCCTTG)	0.0304
TCATACCCATGGACCGGTTTTCCCGGTAATCCGTATTTGCA (site TCATACGCTTG)	0

Sequence	recombinant UMI read abundance (log10)
TCATACCCATGGACCGGTTTTCCCGGTAATCCGTATTTGCA (site TCATACTCTTG)	0.995
TCATACGCATGGACCGGTTTTCCCGGTAATCCGTATTTGCA (site TCATACACTTG)	1.03
TCATACGCATGGACCGGTTTTCCCGGTAATCCGTATTTGCA (site TCATACCCTTG)	0.169
TCATACGCATGGACCGGTTTTCCCGGTAATCCGTATTTGCA (site TCATACGCTTG)	2.25
TCATACGCATGGACCGGTTTTCCCGGTAATCCGTATTTGCA (site TCATACTCTTG)	0.604
TCATACTCATGGACCGGTTTTCCCGGTAATCCGTATTTGCA (site ACATACTCTTG)	1.34
TCATACTCATGGACCGGTTTTCCCGGTAATCCGTATTTGCA (site CCATACTCTTG)	2.03
TCATACTCATGGACCGGTTTTCCCGGTAATCCGTATTTGCA (site GCATACTCTTG)	1.3
TCATACTCATGGACCGGTTTTCCCGGTAATCCGTATTTGCA (site TAATACTCTTG)	1.45
TCATACTCATGGACCGGTTTTCCCGGTAATCCGTATTTGCA (site TCAAACTCTTG)	1.19
TCATACTCATGGACCGGTTTTCCCGGTAATCCGTATTTGCA (site TCACACTCTTG)	1.3
TCATACTCATGGACCGGTTTTCCCGGTAATCCGTATTTGCA (site TCAGACTCTTG)	0
TCATACTCATGGACCGGTTTTCCCGGTAATCCGTATTTGCA (site TCATAATCTTG)	0.464
TCATACTCATGGACCGGTTTTCCCGGTAATCCGTATTTGCA (site TCATACACTTG)	0.64
TCATACTCATGGACCGGTTTTCCCGGTAATCCGTATTTGCA (site TCATACCCTTG)	0.303
TCATACTCATGGACCGGTTTTCCCGGTAATCCGTATTTGCA (site TCATACGCTTG)	0.00277
TCATACTCATGGACCGGTTTTCCCGGTAATCCGTATTTGCA (site TCATACTCTAG)	0
TCATACTCATGGACCGGTTTTCCCGGTAATCCGTATTTGCA (site TCATACTCTCG)	0.514
TCATACTCATGGACCGGTTTTCCCGGTAATCCGTATTTGCA (site TCATACTCTGG)	0

Reference: the supplement of paper PMC11208160
